The record followed here is patent publication US4762840A, “Pyrimido[2,1-b]benzothiazoles having antiallergic activity” (Roussel Uclaf, priority 1984, dated 1988).

For this assay, the system named is lungs. Nature of the assay: Antigen-induced elevation of lung perfusion pressure (isolated perfused sensitized lung, ovalbumen). On the set-up: species or system guinea pig (Dunkin Hartley). As to conditions: Cavia porcellus; perfused lungs of ovalbumen-sensitized guinea pigs; compound in krebs fluid 30 minutes prior to second antigen dose (15 μg ovalbumen); at least four lungs per concentration; read-out: IC50 (inhibition of antigen induced broncho-constriction). As for the experimental part: Antigen-induced elevation of lung perfusion pressure
Male Dunkin Hartley guinea pigs (Porcellus) weighing between 450-700 g were used (four per test concentration) and were housed in cages. The animals were sensitized by two weekly exposures to 1% W/V aerosol ovalbumen. The animals were anaesthetized with 2.5 mg/kg diazepam i.p. and 1 ml/kg Hyponorm i.m. Following anaethesia, the animals were exsanguinated by severing both carotid arteries and the chest was opened and the lungs removed, split into two at the carina and both cannulated via the main lobar bronchus and connected to a perfusion system. The lungs were perfused with aerated krebs fluid (95% O2 :5% CO2) at 37° C. and 5 μg in 0.1 ml Ovalbumen was injected through an injection port proximal to each lung. Elevation of perfusion pressure by the antigen was recorded and sixty minutes later, 15 μg of ovalbumen were administered. The test compounds were added to the krebs fluid reservoir thirty minutes prior to the second antigen dose. For each weekly batch of animals used, control measurements were made without treatment (n=10 ). The second antigen response was expressed as a percentage of the first. For each test, at least four lungs from four different animals were used per concentration. The percentage inhibition of antigen induced broncho-constriction was calculated.
As a reminder, the IC50 is the midpoint of a concentration-inhibition curve. Take `O=C(Cc1ccc2c(c1)sc1nc(=O)cc(-c3ccccc3)n12)N1CCOCC1` [Example 46, 1-(N-morpholino)-2-(2-oxo-4-phenyl-2H-pyrimido[2,1-b]benzothiazole-8-yl)-ethanone]: the IC50 is more than 100 µM.
The figure for `CC(C(=O)OC12CC3CC(CC(C3)C1)C2)c1ccc2c(c1)sc1nc(=O)cc(-c3ccccc3)n12` (stereo not drawn) [Example 50, 1-Adamantyl α-methyl-2-oxo-4-phenyl-2H-pyrimido[2,1-b]benzothiazole-8-acetate] is not above 1 µM; for `CCOC(=O)C(C)c1ccc2c(c1)sc1nc(=O)cc(Cc3ccccc3)n12` (stereo not drawn) [Example 27, Ethyl α-methyl-4-benzyl-2-oxo-2H-pyrimido[2,1-b]benzothiazole-8-acetate] it is 10 to 100 µM.
The figure for `CCOC(=O)Cc1ccc2c(c1)sc1nc(=O)cc(-c3ccc(Cl)cc3)n12` [Example 11, Ethyl 4-(4-chlorophenyl)-2-oxo-2H-pyrimido[2,1-b]benzothiazole-8-acetate] is 10 µM; for `CCOC(=O)C(c1ccc2c(c1)sc1nc(=O)cc(-c3ccccc3)n12)C(C)C` (stereo not drawn) [Example 33, Ethyl α-isopropyl-4-phenyl-2-oxo-2H-pyrimido[2,1-b]benzothiazole-8-acetate] it is 10 to 100 µM.
The figure for `CCCc1cc(=O)nc2sc3cc(C(C)C(=O)OCC)ccc3n12` (stereo not drawn) [Example 24, Ethyl α-methyl-2-oxo-4-n-propyl-2H-pyrimido[2,1-b]benzothiazole-8-acetate] is more than 10 µM.
